# Measurements from patent US5229379A, “Certain N-substituted-amino-alkane phosphinic acid derivatives having anti-epileptic properties” (priority 1990, dated 1993).
# Assays:
# [1] = tested on: "spike and wave" discharges induced by carbamazepine in epileptic rats; assay: Antagonism of the spike and wave discharges induced by carbamazepine in epileptic rats; type: in vivo, rat
# Protocol: (§1) The method and test arrangement correspond to those of Pharmacological Example 1.
# 3-Aminopropyl(diethoxymethyl)phosphinic acid: Antagonism of the "spike and wave" discharges induced by carbamazepine. 3-Aminopropyl(diethoxymethyl)phosphinic acid was administered at time 0, and 20 mg/kg of carbamazepine were administered at time 40, in each case i.p..
# [2] = tested on: "spike and wave" discharges induced by phenytoin in epileptic rats; assay: Antagonism of the spike and wave discharges induced by phenytoin in epileptic rats; type: in vivo, rat
# Protocol: as §1
# 3-Aminopropyl(diethoxymethyl)phosphinic acid: Antagonism of the "spike and wave" discharges induced by phenytoin. 3-Aminopropyl(diethoxymethyl)phosphinic acid was administered at time 0, and 20 mg/kg of phenytoin were administered at time 40, in each case i.p..
# [3] = tested on: "spike and wave" discharges induced by Vigabatrin® in epileptic rats; assay: Antagonism of the spike and wave discharges induced by Vigabatrin in epileptic rats; type: in vivo, rat
# Protocol: as §1
# 3-Aminopropyl(diethoxymethyl)phosphinic acid: Antagonism of the "spike and wave" discharges induced by Vigabatrin®.3-Aminopropyl(diethoxymethyl)phosphinic acid was administered at time 0, and 20 mg/kg of Vigabatrin® were administered at time 160, in each case i.p..
# [4] = tested on: "spike and wave" discharges in epileptic rats (male Wistar rats of the Strasbourg colony); assay: Inhibition of spike and wave discharges in epileptic rats (absence epilepsy model); type: in vivo; conditions: epileptic rat model; for minimal effective dose: dose-dependent, read-out: dose that reduces the spike and wave discharges
# Text: Synchronous "spike and wave" discharges (SWD; frontopariental cortex; 7-8 Hz; 300-1000 μV, duration 0.5 to 40 s, mean value=6.0±3.4 s) and frequently myoclonia facialis accompany a cessation of behaviour. These absence-like conditions occur spontaneously and repeatedly. […] In contrast, a strain could be reared in which 100% of the rats are SWD-free (control rats). This pharmacological model is described in Vergnes M., Marescaux C., Micheletti G., Reis J., Depaulis A., Rumbach L. and Warter J. M., Neurosci. Lett. 33. 97-101 (1982).
# In this model, for example, the clinically used anti-epileptics ethosuximide, diazepam, trimethadione and sodium valproate in doses≥25 mg/kg (ethosuximide),≥0.5 mg/kg (diazepam) and≥50 mg/kg (trimethadione and sodium valproate) reduce the spike and wave discharges in dose-dependent manner. […] Phenobarbital is effective at from 2.5 to 10 mg/kg and is ineffective at 20 mg/kg. The action of these anti-epileptics on the crises in rats and absences in humans supports the hypothesis that this animal model represents a pharmacological model for absence epilepsy. Its predictive value appears to be at least as good as that of other customary animal models.
# The action of GABAB -antagonists was tested on male Wistar rats (300-400 g) of the Strasbourg colony. […] The rats received water and food ad libidum, and the light/dark cycle was 12/12 hours. The rats were anaesthetised with pentobarbital (40 mg/kg i.p.) and implanted bilaterally with 4 stainless steel electrodes (two in the frontal cortex and two in the parietal cortex). The rats were used for experiments no sooner than one week after the operation.
# The rats, which were freely mobile, were accommodated in a Plexiglass cage (17×17×28 cm) (one rat per cage), and, after a 15-minute period for adaptation to the new surroundings, the EEG was recorded over a period of 20 minutes (reference period). The reference line for the particular test series is thus obtained. A GABAB -antagonist was then administered and the EEG was recorded over a period of from 120 to 180 minutes. The rats were kept under constant observation during this period and prevented from falling asleep by gentle manual contact.
# The test compound was dissolved in 0.9% sodium chloride solution and injected in doses of 50, 100, 200 and 400 mg/kg i.p.. Alternatively, the test compound may be administered in a polyethylene glycol, such as Tween® 80, (2 drops/10 ml of suspension of the test compound in 0.9% sodium chloride solution; the suspension is homogenised at 40° for 10 minutes by means of ultrasound, injection volume: 2 ml/kg) i.p. or by means of a stomach probe p.o.. Test compounds that are soluble with difficulty are advantageously administered in solution in a mixture of dimethyl sulfoxide (not more than 10% by volume) and 0.9% sodium chloride solution or in 45% aqueous hydroxypropyl-β-cyclodextrin solution. Each animal is treated with all doses in a randomised sequence. The time between two treatments should be at least 5 days. The mean values ±SEM of the sum total duration of the "spike and wave" discharges of 6 rats over a period of 20 minutes are recorded.
# The sum total duration of the spike and wave discharges (in seconds) is measured for each 20-minute period of the EEG recording. Comparisons between the treatment and the reference period are carried out by means of non-parametric variance analysis of the groups concerned (Friedman test). The control group and the treated groups are compared by means of the Wilcoxon test only when a significant difference between the two groups is found in the Friedmann test. The significances of the differences according to Wilcoxon between doses marked by an asteriks and dose 0 corresponds to p<0,005.
# [5] = tested on: "epilepsy-like" discharges of pyramidal cells; assay: Penicillin-induced epileptic hippocampus section preparation (antagonism to baclofen); type: cell-based
# Protocol: The novel GABAB -antagonists according to the invention interact at the GABAB -receptor with IC50 values of approximately 10^-8 M (moles/l) and above in cerebral cortex membranes of rats. […] The compounds according to the invention act as an antagonist to baclofen action at concentrations of from approximately 10 to approximately 100 μM (micromoles/liter). […] At doses of approximately 30 mg/kg, antagonism to the muscle-relaxing action of baclofen occurs, which is measured in the Rotarod model.
smiles,measurement,setting,value
CCOC(OCC)P(=O)(O)CCCN [3-aminopropyl(diethoxymethyl)phosphinic acid],sum total duration of the spike and wave discharges,"[1]; test compound 200 mg/kg i.p. at time 0, carbamazepine 20 mg/kg i.p. at time 40, period 0-20 min",353 ± 53 s
same,sum total duration of the spike and wave discharges,"[1]; test compound 200 mg/kg i.p. at time 0, carbamazepine 20 mg/kg i.p. at time 40, period 20-40 min",178 ± 37 s
same,sum total duration of the spike and wave discharges,"[1]; test compound 200 mg/kg i.p. at time 0, carbamazepine 20 mg/kg i.p. at time 40, period 40-60 min",173 ± 78 s
same,sum total duration of the spike and wave discharges,"[1]; test compound 200 mg/kg i.p. at time 0, carbamazepine 20 mg/kg i.p. at time 40, period 60-80 min",70 ± 64 s
same,sum total duration of the spike and wave discharges,"[1]; test compound 200 mg/kg i.p. at time 0, carbamazepine 20 mg/kg i.p. at time 40, period 80-100 min",18 ± 17 s
same,sum total duration of the spike and wave discharges,"[1]; test compound 400 mg/kg i.p. at time 0, carbamazepine 20 mg/kg i.p. at time 40, period 0-20 min",115 ± 43 s
same,sum total duration of the spike and wave discharges,"[1]; test compound 400 mg/kg i.p. at time 0, carbamazepine 20 mg/kg i.p. at time 40, period 20-40 min",93 ± 71 s
same,sum total duration of the spike and wave discharges,"[1]; test compound 400 mg/kg i.p. at time 0, carbamazepine 20 mg/kg i.p. at time 40, period 40-60 min",23 ± 14 s
same,sum total duration of the spike and wave discharges,"[1]; test compound 400 mg/kg i.p. at time 0, carbamazepine 20 mg/kg i.p. at time 40, period 60-80 min",29 ± 29 s
same,sum total duration of the spike and wave discharges,"[1]; test compound 400 mg/kg i.p. at time 0, carbamazepine 20 mg/kg i.p. at time 40, period 80-100 min",9 ± 9 s
same,sum total duration of the spike and wave discharges,"[2]; test compound 200 mg/kg i.p. at time 0, phenytoin 20 mg/kg i.p. at time 40, period 0-20 min",394 ± 87 s
same,sum total duration of the spike and wave discharges,"[2]; test compound 200 mg/kg i.p. at time 0, phenytoin 20 mg/kg i.p. at time 40, period 20-40 min",172 ± 64 s
same,sum total duration of the spike and wave discharges,"[2]; test compound 200 mg/kg i.p. at time 0, phenytoin 20 mg/kg i.p. at time 40, period 40-60 min",124 ± 85 s
same,sum total duration of the spike and wave discharges,"[2]; test compound 200 mg/kg i.p. at time 0, phenytoin 20 mg/kg i.p. at time 40, period 60-80 min",239 ± 70 s
same,sum total duration of the spike and wave discharges,"[2]; test compound 200 mg/kg i.p. at time 0, phenytoin 20 mg/kg i.p. at time 40, period 80-100 min",95 ± 37 s
same,sum total duration of the spike and wave discharges,"[2]; test compound 400 mg/kg i.p. at time 0, phenytoin 20 mg/kg i.p. at time 40, period 0-20 min",139 ± 61 s
same,sum total duration of the spike and wave discharges,"[2]; test compound 400 mg/kg i.p. at time 0, phenytoin 20 mg/kg i.p. at time 40, period 20-40 min",48 ± 40 s
same,sum total duration of the spike and wave discharges,"[2]; test compound 400 mg/kg i.p. at time 0, phenytoin 20 mg/kg i.p. at time 40, period 40-60 min",31 ± 31 s
same,sum total duration of the spike and wave discharges,"[2]; test compound 400 mg/kg i.p. at time 0, phenytoin 20 mg/kg i.p. at time 40, period 60-80 min",56 ± 53 s
same,sum total duration of the spike and wave discharges,"[2]; test compound 400 mg/kg i.p. at time 0, phenytoin 20 mg/kg i.p. at time 40, period 80-100 min",42 ± 39 s
same,sum total duration of the spike and wave discharges,"[3]; test compound 200 mg/kg i.p. at time 0, Vigabatrin 20 mg/kg i.p. at time 160, period 240-260 min",213 ± 52 s
same,sum total duration of the spike and wave discharges,"[3]; test compound 200 mg/kg i.p. at time 0, Vigabatrin 20 mg/kg i.p. at time 160, period 260-280 min",249 ± 57 s
same,sum total duration of the spike and wave discharges,"[3]; test compound 400 mg/kg i.p. at time 0, Vigabatrin 20 mg/kg i.p. at time 160, period 240-260 min",44 ± 13 s
same,sum total duration of the spike and wave discharges,"[3]; test compound 400 mg/kg i.p. at time 0, Vigabatrin 20 mg/kg i.p. at time 160, period 260-280 min",28 ± 8 s
CCC1(c2ccccc2)C(=O)NC(=O)NC1=O [Phenobarbital],effect on the spike and wave discharges (in words),[4]; 20 mg/kg,ineffective
"C=CC(N)CCC(=O)O (stereo not shown) [Vigabatrin®, Vigabatrin, reference compound]",sum total duration of the spike and wave discharges,"[3]; Vigabatrin 20 mg/kg i.p. at time 160 alone (antagonist dose 0), period 240-260 min",875 ± 63 s
same,sum total duration of the spike and wave discharges,"[3]; Vigabatrin 20 mg/kg i.p. at time 160 alone (antagonist dose 0), period 260-280 min",938 ± 65 s
NCC(CC(=O)O)c1ccc(Cl)cc1 (stereo not shown) [baclofen],concentration that inhibits epilepsy-like discharges of pyramidal cells,[5],6 µM
"NC(=O)N1c2ccccc2C=Cc2ccccc21 [carbamazepine, reference compound]",effect on the spike and wave discharges (in words),[4],ineffective or make the attacks worse at high doses
same,sum total duration of the spike and wave discharges,"[1]; carbamazepine 20 mg/kg i.p. at time 40 alone (antagonist dose 0), period 40-60 min",636 ± 43 s
same,sum total duration of the spike and wave discharges,"[1]; carbamazepine 20 mg/kg i.p. at time 40 alone (antagonist dose 0), period 60-80 min",669 ± 14 s
same,sum total duration of the spike and wave discharges,"[1]; carbamazepine 20 mg/kg i.p. at time 40 alone (antagonist dose 0), period 80-100 min",675 ± 75 s
CN1C(=O)CN=C(c2ccccc2)c2cc(Cl)ccc21 [diazepam],minimal effective dose,[4],≥ 0.5 mg/kg
CCC1(C)CC(=O)NC1=O (stereo not shown) [ethosuximide],minimal effective dose,[4],≥ 25 mg/kg
"O=C1NC(=O)C(c2ccccc2)(c2ccccc2)N1 [phenytoin, reference compound]",effect on the spike and wave discharges (in words),[4],ineffective or make the attacks worse at high doses
same,sum total duration of the spike and wave discharges,"[2]; phenytoin 20 mg/kg i.p. at time 40 alone (antagonist dose 0), period 40-60 min",555 ± 24 s
same,sum total duration of the spike and wave discharges,"[2]; phenytoin 20 mg/kg i.p. at time 40 alone (antagonist dose 0), period 60-80 min",658 ± 27 s
same,sum total duration of the spike and wave discharges,"[2]; phenytoin 20 mg/kg i.p. at time 40 alone (antagonist dose 0), period 80-100 min",562 ± 76 s
CCCC(CCC)C(=O)[O-].[Na+] [sodium valproate],minimal effective dose,[4],≥ 50 mg/kg
CN1C(=O)OC(C)(C)C1=O [trimethadione],minimal effective dose,[4],≥ 50 mg/kg
